# Source: patent US11229664B2, “Treatment of myelosuppression” (priority 2012, dated 2022)
# Values joined by “and” are separate entries in the source; they are usually repeats but may differ in a detail not shown here. Equal entries are not always repeated.
# How the values were obtained:
# [1] = test system: CA19-9 (carbohydrate antigen 19-9); assay: Clinical trial: serum level of CA19-9; type: in vivo, human; settings: for CA19-9 Serum levels: individual patients, ODSH adjunctive to gemcitabine and nab-paclitaxel
# Method: Treatment consisted of a series of 28-day cycles, wherein the last day of one cycle (e.g., day 28, cycle 1) was immediately followed by the first day of the next cycle (e.g., day 1, cycle 2). In each 28-day treatment cycle, patients were dosed at days 1, 8, and 15 (three weeks of medication followed by one week of rest) as follows. First, nab-paclitaxel at 125 mg/m^2 was administered as an intravenous infusion over 30 minutes. […] Nab-paclitaxel and gemcitabine therapy was given as described in the prescribing information for Abraxane® and Gemzar®. See also, Von Hoff et al., 2011, J. Clinical Oncology 29:1-7). […]
# Blood samples were also tested on day 1 of each treatment cycle for the serum level of CA19-9 (carbohydrate antigen 19-9) a marker used to assess the efficacy of the chemotherapy agents in treating pancreatic cancer. See. e.g., Maeda, 2011, Int. J. Clin. Oncol. 16(5):539-45. Reduction in the serum level of CA19-9 is indicative of chemotherapeutic efficacy against the pancreatic cancer. Tumor response and disease status was measured according to Response Evaluation Criteria in Solid Tumors (RECIST) Guidelines Version 1.1. Eur. J. Cancer, 2009, 45:228-247. A reduction of at least 30% in the sum of the diameters of target lesions (measurable lesions present at screening, up to 2 lesions per involved organ) was scored as a partial response. Patients were scored as having stable disease where the smallest sum of target lesion diameters neither decreased nor increased sufficiently to qualify as a partial response or progressive disease.
# [2] = type: in vivo, human
# Method: Treatment consisted of a series of 28-day cycles, wherein the last day of one cycle (e.g., day 28, cycle 1) was immediately followed by the first day of the next cycle (e.g., day 1, cycle 2). In each 28-day treatment cycle, patients were dosed at days 1, 8, and 15 (three weeks of medication followed by one week of rest) as follows. First, nab-paclitaxel at 125 mg/m^2 was administered as an intravenous infusion over 30 minutes. […] Nab-paclitaxel and gemcitabine therapy was given as described in the prescribing information for Abraxane® and Gemzar®. See also, Von Hoff et al., 2011, J. Clinical Oncology 29:1-7).
# As a substantially non-anticoagulant heparinoid, ODSH can be administered at a dose that is greater than the fully anticoagulant dose of unfractionated heparin, without concern for anticoagulant effect, as shown in the Results below.
# platelets = assay: Clinical trials of ODSH adjunctive to induction and consolidation therapy in AML (platelet counts, need for transfusion); type: in vivo, human
# Method: A clinical trial is conducted to confirm the therapeutic advantage of ODSH administered adjunctively to induction and consolidation therapy and subsequent allogeneic or autologous bone marrow transplantation in the treatment of acute myelogenous leukemia (AML). Subjects included in the trial are subjects diagnosed with AML who are undergoing induction and consolidation therapy. Subjects are randomly assigned to either a control group (receiving only induction and consolidation therapy) or a treatment group (receiving adjunctive administration of ODSH). ODSH is administered as a continuous infusion (0.375 mg/kg/hr). Subjects in each arm of the trial are evaluated for platelet counts and the need for platelet transfusion. Further metrics evaluated include measurement of circulating levels of PF4 and rate of granulocyte recovery.
# A second clinical trial is conducted to confirm the advantage of ODSH administered adjunctively to induction and consolidation chemotherapy in the treatment of AML. The trial is an open-label pilot study often patients newly diagnosed with AML and not previously treated for AML. Patient treatment regimens are as follows. […] Subjects are evaluated for the degree and duration of thrombocytopenia, based on platelet counts and need for transfusion.
# [3] = ODSH adjunct to gemcitabine/nab-paclitaxel
substance,measurement,setting,value
"substantially 2-O, 3-O desulfated heparin [ODSH]",Patients in whom serum CA19-9 level decreased,[1]; [3],8 of 10
same,CA19-9 Serum levels,[1]; Cycle 1 Day 1,"395 U/mL and 70,086 U/mL and 2,138 U/mL and 483 U/mL and 11 U/mL and 326 U/mL and 4,775 U/mL and 125 U/mL and 6,186 U/mL and 6,275 U/mL"
same,CA19-9 Serum levels,[1]; Cycle 2 Day 1,"490 U/mL and 22,958 U/mL and 502 U/mL and 453 U/mL and 17 U/mL and 710 U/mL and 5,934 U/mL and 71 U/mL and 4,392 U/mL and 4,018 U/mL"
same,CA19-9 Serum levels,[1]; Cycle 3 Day 1,"251 U/mL and 10,286 U/mL and 328 U/mL and 205 U/mL and 15 U/mL and 164 U/mL and 8,529 U/mL and 27 U/mL and 2,669 U/mL and 1,433 U/mL"
same,CA19-9 Serum levels,[1]; Cycle 4 Day 1,"108 U/mL and 288 U/mL and 110 U/mL and 20 U/mL and 69 U/mL and 9,926 U/mL and 15 U/mL and 2405 U/mL and 348 U/mL"
same,Effect on patient weight,[2]; [3],minimum weight loss or even some weight gain
same,Weight,"[2]; individual patients, ODSH adjunctive to gemcitabine and nab-paclitaxel, Cycle 6 Day 1",176 pounds and 133 pounds and 157 pounds
same,Thrombocytopenia in AML patients on induction and consolidation chemotherapy (second trial),"platelets; ODSH 4 mg/kg bolus then 0.25 mg/kg/hr, cytarabine + idarubicin",attenuates thrombocytopenia
same,Thrombocytopenia in AML patients on induction and consolidation therapy (first trial),"platelets; ODSH continuous infusion 0.375 mg/kg/hr, adjunctive",attenuates thrombocytopenia
